Assay results taken from the NIST ThermoML archive (doi:10.1007/s10765-011-1087-7).

Tests used:
[1] = xn = mol fraction of the nth substance listed; conditions: 101 kPa, Liquid; for speed of sound: Pulse-echo method
[2] = refractive index (Na D-line) (dimensionless); xn = mol fraction of the nth substance listed; conditions: 101 kPa, Liquid

Clc1ccc(Cl)c(Cl)c1 [1,2,4-trichlorobenzene] + CCCCCCC(C)O
Conditions | mass density, [1] [kg/m3] | refractive index, [2] | speed of sound, [1] [m/s] | viscosity, [1] [mPa·s]
298.15 K, x1 = 0.0762 | 863.97 | 1.4309 | 1301.7 | 5.912
298.15 K, x1 = 0.1303 | 896.31 | 1.4366 | 1296.7 | 5.452
298.15 K, x1 = 0.2045 | 939.57 | 1.4436 | 1290.1 | 4.912
298.15 K, x1 = 0.2713 | 977.28 | 1.4501 | 1283.7 | 4.455
298.15 K, x1 = 0.3461 | 1018.61 | 1.4569 | 1278 | 3.981
298.15 K, x1 = 0.4173 | 1057.62 | 1.4631 | 1273.2 | 3.575
298.15 K, x1 = 0.4857 | 1095.63 | 1.4698 | 1269.8 | 3.223
298.15 K, x1 = 0.5454 | 1129.39 | 1.4758 | 1267 | 2.955
298.15 K, x1 = 0.6115 | 1167.72 | 1.4834 | 1264.2 | 2.699
298.15 K, x1 = 0.6798 | 1209.26 | 1.4919 | 1261.9 | 2.462
298.15 K, x1 = 0.7466 | 1252.54 | 1.5009 | 1259.9 | 2.281
298.15 K, x1 = 0.8183 | 1302 | 1.5119 | 1259.2 | 2.118
298.15 K, x1 = 0.8713 | 1341.45 | 1.521 | 1260.4 | 2.035
298.15 K, x1 = 0.9361 | 1392.95 | 1.534 | 1264.2 | 1.945
298.15 K, x1 = 1 | 1448.41 | 1.548 | 1272 | 1.926
303.15 K, x1 = 0.0762 | 860.11 | 1.4285 | 1283.9 | 4.79
303.15 K, x1 = 0.1303 | 892.4 | 1.4337 | 1279.1 | 4.507
303.15 K, x1 = 0.2045 | 935.51 | 1.4406 | 1273 | 4.124
303.15 K, x1 = 0.2713 | 973.11 | 1.4469 | 1266.9 | 3.783
303.15 K, x1 = 0.3461 | 1014.26 | 1.4539 | 1261.6 | 3.433
303.15 K, x1 = 0.4173 | 1053.06 | 1.4607 | 1256.9 | 3.12
303.15 K, x1 = 0.4857 | 1090.83 | 1.4676 | 1253.5 | 2.849
303.15 K, x1 = 0.5454 | 1124.39 | 1.474 | 1250.5 | 2.632
303.15 K, x1 = 0.6115 | 1162.51 | 1.4818 | 1248 | 2.405
303.15 K, x1 = 0.6798 | 1203.8 | 1.4905 | 1245.6 | 2.205
303.15 K, x1 = 0.7466 | 1246.93 | 1.4999 | 1244.1 | 2.045
303.15 K, x1 = 0.8183 | 1296.19 | 1.511 | 1243.5 | 1.909
303.15 K, x1 = 0.8713 | 1335.49 | 1.5202 | 1244.9 | 1.821
303.15 K, x1 = 0.9361 | 1386.92 | 1.5329 | 1248.7 | 1.769
303.15 K, x1 = 1 | 1442.43 | 1.546 | 1256.4 | 1.76
308.15 K, x1 = 0.0762 | 855.92 | 1.4271 | 1266.3 | 3.886
308.15 K, x1 = 0.1303 | 887.97 | 1.4325 | 1261.9 | 3.674
308.15 K, x1 = 0.2045 | 930.81 | 1.4396 | 1255.8 | 3.413
308.15 K, x1 = 0.2713 | 968.5 | 1.4459 | 1250.3 | 3.169
308.15 K, x1 = 0.3461 | 1009.82 | 1.4525 | 1244.9 | 2.915
308.15 K, x1 = 0.4173 | 1048.71 | 1.4591 | 1240.3 | 2.674
308.15 K, x1 = 0.4857 | 1086.14 | 1.4658 | 1237.1 | 2.456
308.15 K, x1 = 0.5454 | 1119.57 | 1.4718 | 1234.6 | 2.296
308.15 K, x1 = 0.6115 | 1157.41 | 1.4792 | 1232 | 2.117
308.15 K, x1 = 0.6798 | 1198.89 | 1.4877 | 1229.9 | 1.961
308.15 K, x1 = 0.7466 | 1241.6 | 1.4969 | 1228.4 | 1.827
308.15 K, x1 = 0.8183 | 1290.6 | 1.5078 | 1228 | 1.725
308.15 K, x1 = 0.8713 | 1329.97 | 1.517 | 1229.3 | 1.666
308.15 K, x1 = 0.9361 | 1381.4 | 1.5295 | 1233.4 | 1.628
308.15 K, x1 = 1 | 1436.45 | 1.543 | 1240.9 | 1.617
